Test results as given in patent publication US6790958B2, “Purine inhibitors of cyclin dependent kinase 2 & IKBA” (priority 1996, dated 2004).
Converted amounts (≈) assume the structure as drawn.

Columns and labels:
CDK2 = CDK2 (Homo sapiens, UniProt P24941); experiment: CDK2 assay (histone H1 phosphorylation, 32P-ATP filter assay); type: biochemical; details: concentration required to inhibit CDK2 activity by 50%; histone H1, 30 μM ATP, 30° C., 30 min; read-out: IC50 (μg/mL) enzyme (converted)
Method: Compositions of this invention were assayed to determine their CDK2 inhibitory activity. The assay system (total volume of 50 μl) contained 50 mM Tris-Cl, pH 7.4, 10 mMgCl2, 5 mM DTT, 1 μg of histone H1, 30 μM ATP (1 μCi of gamma ^32P labeled ATP?), 10 μg of BSA and 1 μg of purified CDK2. After incubation at 30° C. for 30 min, the reaction was terminated by the addition of 10 μl of 10% TCA and the samples were blotted onto to nitrocellulose filters. These filters were washed extensively in 10% TCA and assayed for radioactivity. Blanks contained no enzyme. […] After incubation at 30 min., the assay tubes Were processed as above.

[1] = test system: rat aortic smooth muscle cells; experiment: Cell proliferation assay, rat aortic smooth muscle cells (MTS); type: cell-based; details: concentration required to inhibit cell proliferation by 50%, 48 hr incubation, read-out: IC50 (μg/mL) cells
Method: (§1) Early passage rat aortic smooth muscle cells (CV Therapeutics Cell repository) were seeded in 48 well dishes (Falcon, […]) at a density of 20,000 cells/ml of DME containing 5% heat inactivated bovine serum. The cells were incubated in a standard tissue culture incubator for 48 hr. The medium was aspirated and the wells were replenished with 0.2 ml of fresh medium. Compounds of this invention were added at concentrations ranging from 100 to 0.37 μg/ml. After 48 hr incubation, the medium was aspirated and the cultures were treated with 0.2 ml of saline 0.25 μl of phenozine methosulfate solution containing MTS (Cell Titer 96® Aqueous Non-radioactive cell proliferation assay kit, Catalog # G 5430, Promega, 2800 Woods Hollow Road, Madison, Wis. 53711-5399).

[2] = test system: PupVSMC rat neonatal aortic smooth muscle cells; experiment: Cell proliferation assay, PupVSMC; type: cell-based; details: Rat neonatal aortic smooth muscle cells, Table 9; the values are: IC50
Method: as §1
(§2) Similar assays were performed using the following cell lines; P388—mouse lymphoid neoplasm; L1210—mouse lympheytic leukemia; Caco2 human colon adenocarcinoma; MCF7 human breast adenocarcinoma; PupVSMC rat neonatal aortic smooth muscle cells; Ovcar human ovarian Carcinoma; Pancl human pancreatic adenocarcinoma; and HUVEC human umbilical cord endothelial cells.

[3] = test system: P388 mouse lymphoid neoplasm; experiment: Cell proliferation assay, P388; type: cell-based; details: P388 cells
Method: as §1, §2

[4] = test system: Pancl human pancreatic adenocarcinoma; experiment: Cell proliferation assay, Panc1; type: cell-based; details: Panc 1 cells
Method: as §1, §2

[5] = test system: Ovcar human ovarian Carcinoma; experiment: Cell proliferation assay, OvCar; type: cell-based; details: OvCar cells
Method: as §1, §2

[6] = test system: Caco2 human colon adenocarcinoma; experiment: Cell proliferation assay, Caco2; type: cell-based; details: Homo sapiens, Caco-2; Caco2 cells; read-out: IC50 (μg/ml) for Inhibition of Cell Proliferation, Caco2
Method: as §1, §2

[7] = test system: L1210 mouse lympheytic leukemia; experiment: Cell proliferation assay, L1210; type: cell-based; details: Mus musculus, L1210; L 120 cells; read-out: IC50 (μg/ml) for Inhibition of Cell Proliferation, L 120
Method: as §1, §2

[8] = test system: MCF7 human breast adenocarcinoma; experiment: Cell proliferation assay, MCF7; type: cell-based; details: Homo sapiens; MCF7 cells; read-out: IC50 (μg/ml) for Inhibition of Cell Proliferation, MCF7
Method: as §1, §2

Structure (SMILES)	IC50 (CDK2)	other results
CC(C)n1cnc2c(Nc3cccc(-c4ccc(C#N)cc4)c3)nc(N(CCO)CCO)nc21	1090 nM	–
COc1cccc(CNc2nc(N(CCO)CCO)nc3c2ncn3C(C)C)c1	1250 nM	–
COc1cccc(CNc2nc(Cl)nc3c2ncn3C(C)C)c1	2710 nM	–
Cc1ccc(-c2ccc(CNc3nc(N(CCO)CCO)nc4c3ncn4C(C)C)cc2)cc1	1300 nM	–
CC(C)n1cnc2c(NCc3ccc(-c4ccc(C(F)(F)F)cc4)cc3)nc(N(CCO)CCO)nc21	1170 nM	–
FC(F)(F)n1cnc2c(NCc3ccc(Cl)cc3)nc(Cl)nc21	2760 nM	–
COc1ccc(CNc2nc(Cl)nc3c2ncn3CCCCl)cc1	> 164000 nM	–
COc1ccc(CNc2nc(N(CCO)CCO)nc3c2ncn3C)cc1	10700 nM	IC50 [1]: 48 µg/mL (≈ 129 µM)
COc1ccc(CNc2nc(Cl)nc3c2ncn3Cc2ccccc2)cc1	> 158000 nM	IC50 [1]: > 70 µg/mL
COc1ccc(CNc2nc(N(CCO)CCO)nc3c2ncn3CCO)cc1	1240 nM	IC50 [1]: 62 µg/mL (≈ 154 µM)
COc1ccc(CNc2nc(NC(CO)CO)nc3c2ncn3C(C)C)cc1	–	IC50 [1]: 15 µg/mL (≈ 38.8 µM)
COc1ccc(CNc2nc(NCC(O)CN)nc3c2ncn3C(C)C)cc1 (stereo not drawn)	1560 nM	IC50 [1]: 25 µg/mL (≈ 64.9 µM)
COc1ccc(CNc2nc(N3CCCC(O)C3)nc3c2ncn3C(C)C)cc1 (stereo not drawn)	2520 nM	–
COc1ccc(CNc2nc(N3CC=CC3)nc3c2ncn3C(C)C)cc1	2740 nM	IC50 [1]: 12.5 µg/mL (≈ 34.3 µM)
COc1ccc(CNc2nc(Cl)nc3c2ncn3C(C)C)cc1	12100 nM	IC50 [1]: 77 µg/mL (≈ 232 µM)
COc1ccc(CNc2nc(N(CC(C)O)CC(C)O)nc3c2ncn3C(C)C)cc1 (stereo not drawn)	1870 nM	–
COc1ccc(CNc2nc(NCCO)nc3c2ncn3C(C)C)cc1	11200 nM	IC50 [1]: 43 µg/mL (≈ 121 µM)
COc1ccc(CNc2nc(N(CCO)Cc3ccccc3)nc3c2ncn3C(C)C)cc1	2240 nM	–
COc1ccc(CNc2nc(Cl)nc3c2ncn3C(F)(C(F)(F)F)C(F)(F)F)cc1	> 98300 nM	–
COc1ccc(CNc2nc(N(CCO)CCO)nc3c2ncn3C(F)(C(F)(F)F)C(F)(F)F)cc1	76000 nM	–
CC(C)n1cnc2c(NCc3ccc(-c4ccccc4)cc3)nc(NCC(O)CO)nc21 (stereo not drawn)	1390 nM	–
CC(C)n1cnc2c(NCc3ccc(-c4ccccc4)cc3)nc(N(CCO)CCO)nc21	1340 nM	–
CSc1ccc(Nc2nc(Cl)nc3c2ncn3C(C)C)cc1	1800 nM	–

Structure (SMILES)	IC50 (CDK2)	other results
CC(=O)C(C)n1cnc2c(NCc3ccc(Cl)cc3)nc(N(CCO)CCO)nc21 (stereo not drawn)	85500 nM	–
CC(C)n1cnc2c(NCc3ccc(Cl)cc3)nc(NCC(O)c3ccccc3)nc21 (stereo not drawn)	183 nM	IC50 [1]: > 5 µg/mL
CC(C)n1cnc2c(NCc3ccc(Cl)cc3)nc(NCCCCCN)nc21	77100 nM	–
CC(C)n1cnc2c(NCc3ccc(Cl)cc3)nc(N(CCO)CCO)nc21 [listing 1 of 2 here]	296 nM	–
CC(C)[C@H](CO)Nc1nc(NCc2ccc(Cl)cc2)c2ncn(C(C)C)c2n1	472 nM	–
CC(C)[C@@H](CO)Nc1nc(NCc2ccc(Cl)cc2)c2ncn(C(C)C)c2n1	124 nM	–
CC(C)n1cnc2c(NCc3ccc(Cl)cc3)nc(NC[C@@H](N)Cc3ccccc3)nc21	2380 nM	–
CC(C)n1cnc2c(NCc3ccc(Cl)cc3)nc(N[C@@H](Cc3ccccc3)C(N)=O)nc21	2310 nM	–
CCC(CO)Nc1nc(NCc2ccc(F)cc2)c2ncn(C(C)C)c2n1 (stereo not drawn)	–	IC50 [1]: 2.4 µg/mL (≈ 6.44 µM)
CC(C)n1cnc2c(NCc3ccc(F)cc3)nc(NCCN)nc21	–	IC50 [1]: 1.4 µg/mL (≈ 4.08 µM)
CC(C)n1cnc2c(NCc3ccc(F)cc3)nc(N(CCO)CCO)nc21	386 nM	IC50 [1]: 2.2 µg/mL (≈ 5.66 µM)
CC(C)[C@H](CO)Nc1nc(NCc2ccc(F)cc2)c2ncn(C(C)C)c2n1	155 nM	IC50 [1]: 2.7 µg/mL (≈ 6.99 µM)
CC(C)n1cnc2c(NCc3ccc(F)cc3)nc(NC[C@H]3CCCO3)nc21	1510 nM	–
CC(C)n1cnc2c(NCc3ccc(F)cc3)nc(NC[C@@H](C)O)nc21	642 nM	IC50 [1]: > 5 µg/mL
CC(C)n1cnc2c(NCc3ccc(F)cc3)nc(NC[C@@H]3CCCO3)nc21	1640 nM	–
CC(C)n1cnc2c(NCc3ccc(F)cc3)nc(NC[C@H](C)O)nc21	614 nM	–
CC(C)n1cnc2c(NCC3CCCCC3)nc(Cl)nc21	3250 nM	–
CC(C)n1cnc2c(NCc3ccc(Cl)cc3)nc(N(CCO)CCO)nc21 [listing 2 of 2 here]	–	inhibitory activity, Pup VSMC [2]: 0.3 µg/mL
COc1ccc(CNc2nc(N3CCOCC3)nc3c2ncn3C(C)C)cc1	–	IC50 (μg/ml) for Inhibition of Cell Proliferation, P 388 [3]: >5 µg/mL; IC50 (μg/ml) for Inhibition of Cell Proliferation, Panc 1 [4]: 5.5 µg/mL; IC50 (μg/ml) for Inhibition of Cell Proliferation, OvCar [5]: 4.0 µg/mL
CC(C)n1cnc2c(NCc3ccc(Cl)cc3)nc(N(CCN)CCO)nc21 [2-[(2-aminoethyl)(6-{[(4-chlorophenyl)methyl]amino}-9-(methylethyl)purin-2-yl)amino]ethan-1-ol]	–	inhibitory activity, Pup VSMC [2]: 0.3 µg/mL
CC(C)n1cnc2c(NCc3ccc(-c4ccccc4)cc3)nc(N(CCO)CCO)nc21 [2-diethanolamino-6-(4-phenybenzylamino)-9-isopropyl Purine]	–	IC50 [6]: 3.5 µg/mL (≈ 7.84 µM); IC50 ([4]; Homo sapiens, read-out: IC50 (μg/ml) for Inhibition of Cell Proliferation, Panc 1): 1.3 µg/mL (≈ 2.91 µM); IC50 ([5]; Homo sapiens, read-out: IC50 (μg/ml) for Inhibition of Cell Proliferation, OvCar): 2 µg/mL (≈ 4.48 µM); IC50 [7]: 1 µg/mL (≈ 2.24 µM); IC50 [8]: 1 µg/mL (≈ 2.24 µM)
CC(N)CNc1nc(NCc2ccc(Cl)cc2)c2ncn(C(C)C)c2n1 (stereo not drawn) [{2-[(2-aminopropyl)amino]-9-(methylethyl)purin-6-yl}[(4-chlorophenyl)methyl]amine]	–	inhibitory activity, Pup VSMC [2]: 0.1 µg/mL

More lines, main results first:

IC50 (CDK2)	Structure (SMILES)	other results
248 nM	CSc1cccc(Nc2nc(N(CCO)CCO)nc3c2ncn3C(C)C)c1	–
358 nM	CC(C)n1cnc2c(NCc3ccc(-c4ccccn4)cc3)nc(N(CCO)CCO)nc21	–
1100 nM	CC(C)n1cnc2c(NCc3ccc(-c4cccs4)cc3)nc(N(CCO)CCO)nc21	–
> 168000 nM	COc1ccc(CNc2nc(Cl)nc3c2ncn3CCCC#N)cc1	–
12200 nM	COc1ccc(CNc2nc(NCCO)nc3c2ncn3C)cc1	IC50 [1]: 48 µg/mL (≈ 146 µM)
1390 nM	CC(C)n1cnc2c(Nc3ccc(-c4ccccc4)cc3)nc(N(CCO)CCO)nc21	–
174 nM	CSc1ccc(Nc2nc(N(CCO)CCO)nc3c2ncn3C(C)C)cc1	–
973 nM	CC(C)n1cnc2c(NCc3ccc(Cl)cc3)nc(NCCN)nc21	–
2670 nM	CC(C)n1cnc2c(NCc3ccc(Cl)cc3)nc(NCCCN)nc21	–
1150 nM	CC(C)n1cnc2c(NCc3ccc(Cl)cc3)nc(NC[C@@H](C)O)nc21	–
934 nM	CC(C)n1cnc2c(NCc3ccc(Cl)cc3)nc(N[C@H](C)CO)nc21	–
694 nM	CC(C)n1cnc2c(NCc3ccc(Cl)cc3)nc(N[C@@H](C)CO)nc21	–
1010 nM	CC(C)n1cnc2c(NCc3ccc(Cl)cc3)nc(NC[C@H](C)O)nc21	–
26400 nM	CC(=O)C(C)n1cnc2c(NCc3ccc(F)cc3)nc(N(CCO)CCO)nc21 (stereo not drawn)	–
1340 nM	CC(N)CNc1nc(NCc2ccc(F)cc2)c2ncn(C(C)C)c2n1 (stereo not drawn)	–
502 nM	CC(CO)Nc1nc(NCc2ccc(F)cc2)c2ncn(C(C)C)c2n1 (stereo not drawn)	–
492 nM	CC(C)[C@@H](CO)Nc1nc(NCc2ccc(F)cc2)c2ncn(C(C)C)c2n1	–
1930 nM	CC(C)n1cnc2c(NCc3ccc4c(c3)OCO4)nc(N(CCO)CCO)nc21	–
19800 nM	COc1ccc(CNc2nc(Cl)nc3c2ncn3C)cc1 [R1=4-methoxybenzylamino; R2=Me; R3=Cl]	IC50 [1]: > 70 µg/mL
3480 nM	CC(C)n1cnc2c(Nc3ccccc3)nc(Cl)nc21 [R1=anilino; R2=isopropyl; R3=Cl]	–
> 211000 nM	OCCNc1nc(NCc2ccccc2)nc2[nH]cnc12 [R1=ethanolamino; R2=H; R3=Benzylamino]	–
> 238000 nM	Cn1cnc2c(NCCO)nc(NCCO)nc21 [R1=ethanolamino; R2=Me; R3=Ethanolamino]	IC50 [1]: > 70 µg/mL
